Laboratory results: patent US12054494B2, “Compound with anticancer activity” (KYOWA KIRIN CO., LTD., priority 2018, dated 2024)

The compounds below were run on SU-DHL-4 cells (assay: Inhibitory effect on cell viability (Cell Counting Kit-8)). Settings: Homo sapiens, 72 hours culture with test compound, concentration showing 90% inhibition rate of cell viability.
Assay type: cell-based
Summary of the method: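 IC90 corresponds to 90% loss of viability, measured as CCK-8 absorbance at 450 nm (2-3 h colour development). Compounds in 9 dilutions (0.1% DMSO) were applied for 72 h at 37° C to SU-DHL-4 lymphoma cells seeded at 2000/well in RPMI1640/10% FBS after 18-25 h preculture.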
Compound `CCC(=O)N1c2ccccc2[C@H](Nc2ccc(C(=O)N3CCn4c(C(O)c5ccc(N[C@@H]6C[C@H](C)N(C(=O)CC)c7ccccc76)cc5)cnc4C3)cc2)C[C@@H]1C` (stereo partly drawn) [Compound 6a, 1-((2S,4R)-4-((4-(3-(Hydroxy(4-(((2S,4R)-2-methyl-1-propionyl-1,2,3,4-tetrahydroquinolin-4-yl)amino)phenyl)methyl)-5,6,7,8-tetrahydroimidazo[1,2-a]pyrazine-7-carbonyl)phenyl)amino)-2-methyl-3,4-dihydroquinolin-1(2H)-yl)propan-1-one] has an IC90 of 0.89 nM.
For `CCC(=O)N1c2ccccc2[C@H](Nc2ccc(NC(=O)CCS(=O)(=O)Nc3ccc(N[C@@H]4C[C@H](C)N(C(=O)CC)c5ccccc54)cc3)cc2)C[C@@H]1C` [Compound 6b, N-(4-(((2S,4R)-2-Methyl-1-propionyl-1,2,3,4-tetrahydroquinolin-4-yl)amino)phenyl)-3-(N-(4-(((2S,4R)-2-methyl-1-propionyl-1,2,3,4-tetrahydroquinolin-4-yl)amino)phenyl)sulfamoyl)propanamide], the IC90 was 0.1 nM.
Compound `CCC(=O)N1c2ccccc2[C@H](Nc2ccc(C(=O)NCCc3cn(-c4ccc(N[C@@H]5C[C@H](C)N(C(=O)CC)c6ccccc65)cc4)nn3)cc2)C[C@@H]1C` [Compound 6c, 4-(((2S,4R)-2-Methyl-1-propionyl-1,2,3,4-tetrahydroquinolin-4-yl)amino)-N-(2-(1-(4-(((2S,4R)-2-methyl-1-propionyl-1,2,3,4-tetrahydroquinolin-4-yl)amino)phenyl)-1H-1,2,3-triazol-4-yl)ethyl)benzamide] has an IC90 of 0.83 nM.
For `CCC(=O)N1c2ccccc2[C@H](Nc2ccc(CN3CC(C(=O)Nc4ccc(N[C@@H]5C[C@H](C)N(C(=O)CC)c6ccccc65)cc4)C3)cc2)C[C@@H]1C` [Compound 6d, 1-(4-(((2S,4R)-2-Methyl-1-propionyl-1,2,3,4-tetrahydroquinolin-4-yl)amino)benzyl)-N-(4-(((2S,4R)-2-methyl-1-propionyl-1,2,3,4-tetrahydroquinolin-4-yl)amino)phenyl)azetidine-3-carboxamide], the IC90 was 5.08 nM.
`CCC(=O)N1c2ccccc2[C@H](Nc2ccc(NS(=O)(=O)CCNC(=O)c3ccc(N[C@@H]4C[C@H](C)N(C(=O)CC)c5ccccc54)cc3)cc2)C[C@@H]1C` [Compound 6g, 4-(((2S,4R)-2-Methyl-1-propionyl-1,2,3,4-tetrahydroquinolin-4-yl)amino)-N-(2-(N-(4-(((2S,4R)-2-methyl-1-propionyl-1,2,3,4-tetrahydroquinolin-4-yl)amino)phenyl)sulfamoyl)ethyl)benzamide] showed an IC90 of 0.31 nM.
Compound `CCC(=O)N1c2ccccc2C(Nc2ccc(NC(=O)C#CCNC(=O)c3ccc(N[C@@H]4C[C@H](C)N(C(=O)CC)c5ccccc54)cc3)cc2)CC1C` (stereo partly drawn) [Compound 6h, 4-(((2S,4R)-2-Methyl-1-propionyl-1,2,3,4-tetrahydroquinolin-4-yl)amino)-N-(4-((4-((2-methyl-1-propionyl-1,2,3,4-tetrahydroquinolin-4-yl)amino)phenyl)amino)-4-oxobut-2-yn-1-yl)benzamide] has an IC90 of 0.003 nM.
For `CCC(=O)N1c2ccccc2[C@H](Nc2ccc(C(=O)N3CCC(n4cc(-c5ccc(N[C@@H]6C[C@H](C)N(C(=O)CC)c7ccccc76)cc5)cn4)CC3)cc2)C[C@@H]1C` [Compound 6o, 1-((2S,4R)-2-Methyl-4-((4-(1-(1-(4-(((2S,4R)-2-methyl-1-propionyl-1,2,3,4-tetrahydroquinolin-4-yl)amino)benzoyl)piperidin-4-yl)-1H-pyrazol-4-yl)phenyl)amino)-3,4-dihydroquinolin-1(2H)-yl)propan-1-one], the IC90 was 0.14 nM.
`CCC(=O)N1c2ccccc2[C@H](Nc2ccc(C(=O)N3CCCN(C(=O)c4ccc(N[C@@H]5C[C@H](C)N(C(=O)CC)c6ccccc65)cc4)CC3)cc2)C[C@@H]1C` [Compound 6p, 1,1′-((2S,2′S,4R,4′R)-(((1,4-Diazepane-1,4-dicarbonyl)bis(4,1-phenylene))bis(azanediyl))bis(2-methyl-3,4-dihydroquinoline-4,1(2H)-diyl))bis(propan-1-one)] showed an IC90 of 41.5 nM.
In the case of `CCC(=O)N1c2ccccc2[C@H](Nc2ccc(C(=O)NCCn3cc(-c4ccc(N[C@@H]5C[C@H](C)N(C(=O)CC)c6ccccc65)cc4)cn3)cc2)C[C@@H]1C` [Compound 6q, 4-(((2S,4R)-2-Methyl-1-propionyl-1,2,3,4-tetrahydroquinolin-4-yl)amino)-N-(2-(4-(4-(((2S,4R)-2-methyl-1-propionyl-1,2,3,4-tetrahydroquinolin-4-yl)amino)phenyl)-1H-pyrazol-1-yl)ethyl)benzamide], the IC90 is reported as 0.45 nM.
For `CCC(=O)N1c2ccccc2[C@H](Nc2ccc(NC(=O)C3CN(C(=O)N4CCC(N[C@@H]5C[C@H](C)N(C(=O)CC)c6ccccc65)CC4)C3)cc2)C[C@@H]1C` [Compound 10a, N-(4-(((2S,4R)-2-Methyl-1-propionyl-1,2,3,4-tetrahydroquinolin-4-yl)amino)phenyl)-1-(4-(((2S,4R)-2-methyl-1-propionyl-1,2,3,4-tetrahydroquinolin-4-yl)amino)piperidine-1-carbonyl)azetidine-3-carboxamide], the IC90 was 2.4 nM.
`CCC(=O)N1c2ccccc2[C@H](Nc2ccc(C(=O)NCC#CC(=O)N3CCC(N[C@@H]4C[C@H](C)N(C(=O)CC)c5ccccc54)CC3)cc2)C[C@@H]1C` [Compound 10c, 4-(((2S,4R)-2-Methyl-1-propionyl-1,2,3,4-tetrahydroquinolin-4-yl)amino)-N-(4-(4-(((2S,4R)-2-methyl-1-propionyl-1,2,3,4-tetrahydroquinolin-4-yl)amino)piperidin-1-yl)-4-oxobut-2-yn-1-yl)benzamide] showed an IC90 of 0.13 nM.
`CCC(=O)N1c2ccccc2[C@H](Nc2ccc(NC(=O)CCCC(=O)Nc3ccc(N[C@@H]4C[C@H](C)N(C(=O)CC)c5ccccc54)nc3)cc2)C[C@@H]1C` [Compound 10k, N^1-(4-(((2S,4R)-2-Methyl-1-propionyl-1,2,3,4-tetrahydroquinolin-4-yl)amino)phenyl)-N^5-(6-(((2S,4R)-2-methyl-1-propionyl-1,2,3,4-tetrahydroquinolin-4-yl)amino)pyridin-3-yl)glutaramide] was tested, and the IC90 was 0.93 nM.
For `CCC(=O)N1c2ccc(F)cc2[C@H](Nc2ccc(C(=O)NCCCNC(=O)c3ccc(N[C@@H]4C[C@H](C)N(C(=O)CC)c5ccc(F)cc54)cc3)cc2)C[C@@H]1C` [Compound 10q, N,N′-(Propane-1,3-diyl)bis(4-(((2S,4R)-6-fluoro-2-methyl-1-propionyl-1,2,3,4-tetrahydroquinolin-4-yl)amino)benzamide)], the IC90 was 9.88 nM.
`CCC(=O)N1c2ccc(F)cc2[C@H](Nc2ccc(C(=O)NCCNC(=O)c3ccc(N[C@@H]4C[C@H](C)N(C(=O)CC)c5ccc(F)cc54)cc3)cc2)C[C@@H]1C` [Compound 10r, N,N′-(Ethane-1,2-diyl)bis(4-(((2S,4R)-6-fluoro-2-methyl-1-propionyl-1,2,3,4-tetrahydroquinolin-4-yl)amino)benzamide)] gave an IC90 of 9.16 nM.
In the case of `CCC(=O)N1c2ccccc2[C@H](Nc2ccc(-c3nnc(CNC(=O)C4CCN(Cc5cc(O)cc(-c6c(C)noc6C)c5)CC4)o3)cc2)C[C@@H]1C` [Compound 12a, 1-(3-(3,5-Dimethylisoxazol-4-yl)-5-hydroxybenzyl)-N-((5-(4-(((2S,4R)-2-methyl-1-propionyl-1,2,3,4-tetrahydroquinolin-4-yl)amino)phenyl)-1,3,4-oxadiazol-2-yl)methyl)piperidine-4-carboxamide], the IC90 is reported as 1.01 nM.
`CCC(=O)N1c2ccccc2[C@H](Nc2ccc(NC(=O)C3CN(C(=O)C4CCN(Cc5cc(O)cc(-c6c(C)noc6C)c5)CC4)C3)cc2)C[C@@H]1C` [Compound 12b, 1-(1-(3-(3,5-Dimethylisoxazol-4-yl)-5-hydroxybenzyl)piperidine-4-carbonyl)-N-(4-(((2S,4R)-2-methyl-1-propionyl-1,2,3,4-tetrahydroquinolin-4-yl)amino)phenyl)azetidine-3-carboxamide] was tested, and the IC90 was 4.35 nM.
`CCC(=O)N1c2ccccc2[C@H](Nc2ccc(SCCNC(=O)c3ccc(C4=N[C@@H](CC(=O)OCCN(C)C)c5nnc(C)n5-c5sc(C)c(C)c54)cc3)cc2)C[C@@H]1C` [Compound 13a, 2-(Dimethylamino)ethyl 2-((S)-2,3,9-trimethyl-4-(4-((2-((4-(((2S,4R)-2-methyl-1-propionyl-1,2,3,4-tetrahydroquinolin-4-yl)amino)phenyl)thio)ethyl)carbamoyl)phenyl)-6H-thieno[3,2-f][1,2,4]triazolo[4,3-a][1,4]diazepin-6-yl)acetate] was tested, and the IC90 was 0.49 nM.
`CCC(=O)N1c2ccccc2[C@H](Nc2ccc(-c3cnn(CC(=O)Nc4ccc(C5=NCc6nnc(C)n6-c6sc(C)c(C)c65)cc4)c3)cc2)C[C@@H]1C` [Compound 14a, 2-(4-(4-(((2S,4R)-2-Methyl-1-propionyl-1,2,3,4-tetrahydroquinolin-4-yl)amino)phenyl)-1H-pyrazol-1-yl)-N-(4-(2,3,9-trimethyl-6H-thieno[3,2-f][1,2,4]triazolo[4,3-a][1,4]diazepin-4-yl)phenyl)acetamide] gave an IC90 of 0.04 nM.
`CCC(=O)N1c2ccccc2[C@H](Nc2ccc(-c3cnn(CCNC(=O)c4ccc(C5=NCc6nnc(C)n6-c6sc(C)c(C)c65)cc4)c3)cc2)C[C@@H]1C` [Compound 14b, N-(2-(4-(4-(((2S,4R)-2-Methyl-1-propionyl-1,2,3,4-tetrahydroquinolin-4-yl)amino)phenyl)-1H-pyrazol-1-yl)ethyl)-4-(2,3,9-trimethyl-6H-thieno[3,2-f][1,2,4]triazolo[4,3-a][1,4]diazepin-4-yl)benzamide] gave an IC90 of 0.12 nM.
Work on `CCC(=O)N1c2ccccc2[C@H](Nc2ccc(NC(=O)COCC(=O)Nc3ccc(C4=NCc5nnc(C)n5-c5sc(C)c(C)c54)cc3)cc2)C[C@@H]1C` [Compound 14d, N-(4-(((2S,4R)-2-Methyl-1-propionyl-1,2,3,4-tetrahydroquinolin-4-yl)amino)phenyl)-2-(2-oxo-2-((4-(2,3,9-trimethyl-6H-thieno[3,2-f][1,2,4]triazolo[4,3-a][1,4]diazepin-4-yl)phenyl)amino)ethoxy)acetamide] yielded an IC90 of 0.16 nM.
